Experiment: Stability of vitamin D2 in milk boiled twice (relative assay)
Assay type: physicochemical
Protocol: In an example, the effect of bioactive microsphere of the present disclosure on the stability of bioactive, when subjected to the deteriorating effect of processing parameter such as heating, was studied. The stability of vitamin D2 was determined by heating the milk containing the bioactive microsphere as prepared in Example 1, and the milk containing pure vitamin D2, i.e., control vitamin D2.
For the purpose of this example, both the vitamin D2 containing milk were boiled twice, and the amount of vitamin D2 was determined after second boiling, as shown in Table 1. The difference in the amount of vitamin D2 in the milk before boiling, and after the second boiling, illustrated the deteriorating effect of heat on the vitamin D2.

C=C1CC[C@H](O)C/C1=C/C=C1\CCC[C@]2(C)[C@@H]([C@H](C)/C=C/[C@H](C)C(C)C)CC[C@@H]12 [Control vitamin D2, vitamin D2]
Stability of vitamin D2 in milk on boiling (in words) (milk, boiled two times): deactivated on boiling
% Relative assay Before boiling (%) (vitamin D2 in milk, before boiling): 100%
% Degradation (vitamin D2 in milk, before boiling vs after second boiling): 65%
% Relative assay After second boiling (%) (vitamin D2 in milk, boiled twice, after second boiling): 35%
